Laboratory results published in patent US11623931B2, “Bicyclic compounds for diagnosis and therapy” (AC IMMUNE SA, priority 2016, dated 2023).

Columns and labels:
[1] = target: T1, aSyn aggregates on PD sections (Homo sapiens, UniProt P37840); assay: Assay 1 (fluorescence based assay): direct staining of human Parkinson's disease brain sections; format: binding; design: key: − (No); +/− (very weak); + (weak); ++ (good); +++ (strong); conditions: staining intensity; compound 100 μM, frozen amygdala sections, PD Braak stage V-VI
T1 construct: 20 μm frozen sections from amygdala were purchased from an external provider (Tissue Solutions Ltd.); tissue Tissue Solutions Ltd; host or cells: human PD amygdala, frozen sections, Braak stage V-VI
Source text: Assay 1 (Fluorescence Based Assay):
(§1) Direct Staining of Compounds of this Invention to Human Parkinson's Disease Brain Sections
(§2) 20 μm frozen sections from amygdala were purchased from an external provider (Tissue Solutions Ltd.). Donors were diagnosed with PD, Braak stage V-VI (Braak et al., Neurobiol. Aging, 2003, 24, 197-211) and thus with confirmed aSyn pathology. PD donors, Braak stage V-VI with mixed pathology, containing aSyn aggregates as well as Aβ plaques, were also used in this assay. Sections were kept at −80° C. until start of the experiment.
(§3) Brain sections were encircled with pap pen liquid blocker to reduce the volume of solution for the different incubations. Sections were fixed for 15 min at 4° C. with 4% paraformaldehyde and washed three times for 5 minutes with PBS (phosphate buffered saline) at room temperature. Test compounds were incubated on the sections at 100 μM in 50% ethanol in water for 30 min at room temperature, followed by three washes of 5 minutes with PBS. Sections were then saturated and permeabilized in blocking buffer (PBS, 10% NGS, 0.25% Triton) for 1 hour at room temperature and then incubated for 2 hours at room temperature with the primary antibodies against aSyn: aSyn-211 (SantaCruz Biotechnology sc-12767) or aSyn-pS129 (Abcam AB51253), and primary antibody against AR, 4G8, (Covance, SIG-39220). All primary antibodies diluted 1/250 in PBS, 5% NGS, 0.25% Triton. After three washes in PBS, the sections were incubated for 30 minutes at room temperature with a secondary anti-mouse antibody labeled with AlexaFluor555 (Invitrogen A21422) or anti-rabbit antibody labeled with AlexaFluor555 (Invitrogen A21428) and further washed three times in PBS. To reduce auto-fluorescence of the tissue, the sections were incubated in a solution of 0.1% Sudan Black (Sigma 199664) in 70% ethanol for 15 min at room temperature, followed by four washes with PBS and mounted under cover slips using ProLong Gold Antifade reagent (Invitrogen P36930).
(§4) Sections were analyzed on the Nikon Eclipse Ti microscope to detect staining and imaged using Nikon DS-Fi2 camera and NIS-Element AR4.13.1 software.

[2] = tested on: Aβ plaques on PD sections with mixed pathology; assay: Assay 1 (fluorescence based assay): direct staining of PD brain sections with mixed pathology; format: binding, human; design: key: − (No); +/− (very weak); + (weak); ++ (good); +++ (strong); conditions: staining intensity; compound 100 μM, frozen amygdala sections, PD Braak stage V-VI with aSyn aggregates and Aβ plaques
Procedure: as §1, §2, §3, §4

Row | Staining of aSyn aggregates on PD sections [1] | Structure (SMILES) | Staining of Aβ plaques on PD sections with mixed pathology [2]
1 | ++ | O=C1CN(CCF)CCN1c1ccc2nc(-c3ccc(N4CCCC4)nc3)sc2c1 [Example 128] | ++
2 | ++ | N#Cc1ccc2sc(-c3ccc(N4CCCC4)nc3F)nc2n1 [Example 131] | +++
3 | + | O=C1NCCc2nc(-c3ccc(N4CC[C@H](F)C4)nc3)sc21 [Example 118] | +
4 | + | O=C1NCCc2nc(N3CC[C@H](F)C3)sc21 [Example 119] | −
5 | + | O=C1COCCN1c1ccc2nc(-c3cnn(CCF)c3)sc2c1 [Example 125] | +
6 | ++ | O=C1c2sc(-c3ccc(N4CC[C@H](F)C4)nc3)nc2CCN1c1cccnc1 [Example 130] | +++

More lines, now with the values behind:

Row | Structure (SMILES) | Staining of aSyn aggregates on PD sections [1] | Staining of Aβ plaques on PD sections with mixed pathology [2]
7 | Fc1nc(N2CCCC2)ccc1-c1ccc2cc(-c3cncnc3)sc2n1 [Example 110] | + | +++
8 | F[C@H]1CCN(c2ccc(-c3nc4nc(-c5cccnc5)ccc4s3)cn2)C1 [Example 91] | ++ | −
9 | F[C@H]1CCCN(c2ccc(-c3nc4ncc(-c5cccnc5)cc4s3)cn2)C1 [Example 101] | ++ | +
10 | Nc1ccc(-c2cc3ccc(-c4ccc(F)nc4)nc3s2)cn1 [Example 105] | +++ | ++
11 | F[C@@H]1CCN(c2ccc(-c3nc4nc(-c5cccnc5)ccc4s3)cn2)C1 [Example 90] | ++ | −
12 | Fc1nc(N2CCCC2)ccc1-c1nc2nc(-c3cnc[nH]3)ccc2s1 [Example 95] | ++ | −
13 | CNc1ccc(-c2cc3ccc(-c4ccc(N5CC[C@@H](F)C5)nc4)nc3s2)cc1F [Example 111] | +++ | +++
14 | Fc1nc(N2CCCC2)ccc1-c1nc2nc(-c3cc[nH]c3)ccc2s1 [Example 96] | ++ | +/−
15 | CNc1ccc(-c2cc3ccc(-c4ccc(N5CC[C@H](F)C5)nc4)nc3s2)cc1F [Example 113] | + | ++
16 | Cn1nccc1-c1ccc2sc(-c3ccc(N4CCCC4)nc3F)nc2n1 [Example 97] | + | +/−
17 | Fc1ncccc1-c1ccc2sc(-c3ccc(N4CCCC4)nc3)nc2n1 [Example 108] | ++ | +/−
18 | Fc1nc(N2CCCC2)ccc1-c1nc2nc(-c3cn[nH]c3)ccc2s1 [Example 85] | +++ | −
